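1) Cells in 96-well plates. 2) Compound, 48 h, 5 concentrations. 3) Linear interpolation between surrounding doses. 4) Unreached endpoint = highest concentration. The concentration for full growth arrest is given as TGI.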
Tests used:
Assay in all cases: inhibition of tumour cell growth, NCI panel, 48 h
OVCAR-3 ovarian = tested on: OVCAR-3 ovarian
KM12 colon = tested on: KM12 colon
OVCAR-5 ovarian = tested on: OVCAR-5 ovarian
T-47D breast = tested on: T-47D breast
MOLT-4 leukemia = tested on: MOLT-4 leukemia
UO-31 renal = tested on: UO-31 renal
MCF7 breast = tested on: MCF7 breast
MDA-MB-435 = tested on: MDA-MB-435
SK-MEL-5 melanoma = tested on: SK-MEL-5 melanoma
SN12C renal = tested on: SN12C renal
U251 CNS = tested on: U251 CNS
BT-549 breast = tested on: BT-549 breast
OVCAR-8 ovarian = tested on: OVCAR-8 ovarian
SF-295 CNS = tested on: SF-295 CNS
SK-OV-3 ovarian = tested on: SK-OV-3 ovarian
DU-145 prostate = tested on: DU-145 prostate
LOX IMVI melanoma = tested on: LOX IMVI melanoma
NCI/ADR-RES ovarian = tested on: NCI/ADR-RES ovarian
MALME-3M melanoma = tested on: MALME-3M melanoma
HOP-62 NSCLC = tested on: HOP-62 NSCLC
COLO 205 colon = tested on: COLO 205 colon
HT29 colon = tested on: HT29 colon
NCI-H460 lung = tested on: NCI-H460 lung
RPMI-8226 leukemia = tested on: RPMI-8226 leukemia
HCT-15 colon = tested on: HCT-15 colon
NCI-H522 lung = tested on: NCI-H522 lung
SK-MEL-2 melanoma = tested on: SK-MEL-2 melanoma
ACHN renal = tested on: ACHN renal
NCI-H226 lung = tested on: NCI-H226 lung
SF-268 CNS = tested on: SF-268 CNS
MDA-MB-231 breast = tested on: MDA-MB-231 breast
TK-10 renal = tested on: TK-10 renal
SK-MEL-28 melanoma = tested on: SK-MEL-28 melanoma
IGROV1 ovarian = tested on: IGROV1 ovarian
SW-620 colon = tested on: SW-620 colon
786-0 renal = tested on: 786-0 renal
CCRF-CEM leukemia = tested on: CCRF-CEM leukemia
UACC-257 melanoma = tested on: UACC-257 melanoma
M14 melanoma = tested on: M14 melanoma
HCT-116 colon = tested on: HCT-116 colon
HOP-92 NSCLC = tested on: HOP-92 NSCLC
HS 578T breast = tested on: HS 578T breast
SR leukemia = tested on: SR leukemia
SF-539 CNS = tested on: SF-539 CNS
CAKI-1 renal = tested on: CAKI-1 renal
K-562 leukemia = tested on: K-562 leukemia
NCI-H23 lung = tested on: NCI-H23 lung
EKVX NSCLC = tested on: EKVX NSCLC
SNB-19 CNS = tested on: SNB-19 CNS
A549 NSCLC = tested on: A549 NSCLC
SNB-75 CNS = tested on: SNB-75 CNS
PC-3 prostate = tested on: PC-3 prostate
UACC-62 melanoma = tested on: UACC-62 melanoma
OVCAR-4 ovarian = tested on: OVCAR-4 ovarian

**Q.** Which TGI (OVCAR-3 ovarian) does the source give for `Nc1ccc2c(SCCSc3c4ccccc4nc4cc(N)ccc34)c3ccccc3nc2c1` here?
**A.** > 100 µM

**Q.** What about the TGI (KM12 colon) of the same compound?
**A.** > 100 µM

**Q.** What about the TGI (OVCAR-5 ovarian) of the same compound?
**A.** > 100 µM

**Q.** What about the TGI (T-47D breast) of the same compound?
**A.** > 100 µM

**Q.** And the TGI (MOLT-4 leukemia)?
**A.** 39.3 µM

**Q.** And the TGI (UO-31 renal)?
**A.** > 100 µM

**Q.** And the TGI (MCF7 breast)?
**A.** > 100 µM

**Q.** And the TGI (MDA-MB-435)?
**A.** > 100 µM

**Q.** And the TGI (SK-MEL-5 melanoma)?
**A.** > 100 µM

**Q.** What about the TGI (SN12C renal) of the same compound?
**A.** > 100 µM

**Q.** What about the TGI (U251 CNS) of the same compound?
**A.** > 100 µM

**Q.** And the TGI (BT-549 breast)?
**A.** > 100 µM

**Q.** What about the TGI (OVCAR-8 ovarian) of the same compound?
**A.** > 100 µM

**Q.** And the TGI (SF-295 CNS)?
**A.** > 100 µM

**Q.** And the TGI (SK-OV-3 ovarian)?
**A.** > 100 µM

**Q.** What about the TGI (DU-145 prostate) of the same compound?
**A.** > 100 µM

**Q.** And the TGI (LOX IMVI melanoma)?
**A.** > 100 µM

**Q.** And the TGI (NCI/ADR-RES ovarian)?
**A.** > 100 µM

**Q.** What about the TGI (MALME-3M melanoma) of the same compound?
**A.** > 100 µM

**Q.** And the TGI (HOP-62 NSCLC)?
**A.** > 100 µM

**Q.** And the TGI (COLO 205 colon)?
**A.** > 100 µM

**Q.** And the TGI (HT29 colon)?
**A.** > 100 µM

**Q.** And the TGI (NCI-H460 lung)?
**A.** > 100 µM

**Q.** What about the TGI (RPMI-8226 leukemia) of the same compound?
**A.** > 100 µM

**Q.** What about the TGI (HCT-15 colon) of the same compound?
**A.** > 100 µM

**Q.** What about the TGI (NCI-H522 lung) of the same compound?
**A.** > 100 µM

**Q.** And the TGI (SK-MEL-2 melanoma)?
**A.** > 100 µM

**Q.** What about the TGI (ACHN renal) of the same compound?
**A.** > 100 µM

**Q.** What about the TGI (NCI-H226 lung) of the same compound?
**A.** > 100 µM

**Q.** What about the TGI (SF-268 CNS) of the same compound?
**A.** > 100 µM

**Q.** And the TGI (MDA-MB-231 breast)?
**A.** > 100 µM

**Q.** What about the TGI (TK-10 renal) of the same compound?
**A.** > 100 µM

**Q.** And the TGI (SK-MEL-28 melanoma)?
**A.** > 100 µM

**Q.** And the TGI (IGROV1 ovarian)?
**A.** > 100 µM

**Q.** What about the TGI (SW-620 colon) of the same compound?
**A.** > 100 µM

**Q.** And the TGI (786-0 renal)?
**A.** > 100 µM

**Q.** And the TGI (CCRF-CEM leukemia)?
**A.** > 100 µM

**Q.** And the TGI (UACC-257 melanoma)?
**A.** > 100 µM

**Q.** And the TGI (M14 melanoma)?
**A.** > 100 µM

**Q.** What about the TGI (HCT-116 colon) of the same compound?
**A.** > 100 µM

**Q.** What about the TGI (HOP-92 NSCLC) of the same compound?
**A.** > 100 µM

**Q.** And the TGI (HS 578T breast)?
**A.** > 100 µM

**Q.** And the TGI (SR leukemia)?
**A.** > 100 µM

**Q.** And the TGI (SF-539 CNS)?
**A.** > 100 µM

**Q.** And the TGI (CAKI-1 renal)?
**A.** > 100 µM

**Q.** What about the TGI (K-562 leukemia) of the same compound?
**A.** > 100 µM

**Q.** What about the TGI (NCI-H23 lung) of the same compound?
**A.** > 100 µM

**Q.** And the TGI (EKVX NSCLC)?
**A.** > 100 µM

**Q.** And the TGI (SNB-19 CNS)?
**A.** > 100 µM

**Q.** What about the TGI (A549 NSCLC) of the same compound?
**A.** > 100 µM

**Q.** What about the TGI (SNB-75 CNS) of the same compound?
**A.** > 100 µM

**Q.** What about the TGI (PC-3 prostate) of the same compound?
**A.** > 100 µM

**Q.** What about the TGI (UACC-62 melanoma) of the same compound?
**A.** > 100 µM

**Q.** And the TGI (OVCAR-4 ovarian)?
**A.** > 100 µM
